Reference: patent publication US4880636A, “Film coated tablet of ranitidine HCl” (priority 1988, dated 1989)
“Also recorded” adds a separate entry of the source. Where a name gives a salt, the structure may show the parent alone.

Key:
[1] = Compatibility of plasticizer with ranitidine HCl; conditions: plasticizer in polymeric film coating of ranitidine HCl tablets
[2] = Cast film plasticizer comparison study (discoloration); assay type: physicochemical; set-up: key: 1 = least discoloration; 5 = greatest discoloration; conditions: ranitidine HCl spread on cast HPMC film with plasticizer (0.2 gm per gram HPMC); 60 degrees centigrade/78.9% RH, approximately two weeks; visual
Procedure: Cast film studies are performed using a typical film aqueous coating composition containing, on a per gram HPMC dry weight basis, plasticizer, 0.2 gm, and Opaspray (trademark of Colorcon, Inc., West Point, PA) colorant solids 0.5 gm. Cast films are prepared by adding 1.5 g of a 15% solids solution to a uniform plate, 42 mm in diameter, and drying at ambient temperature for at least 24 hours. Ranitidine HCl (1.5 gm), of particle size 50 to 200 microns, is then spread uniformly on the dried film coating and stored at 60 degrees centigrade/78.9% relative humidity (RH) for approximately two weeks. The RH is controlled by using a desiccator jar and a saturated KBr solution, which is maintained at 60° C. in a drying oven. […] After two weeks, the cast films are removed and visually examined for discoloration.

[3] = cited from earlier work
[4] = Physicians' Desk Reference, 41st ed., page 993 (1987); cited from earlier work

Compound	reactivity with ranitidine HCl or promotion of its degradation [1]	Cast Film Discoloration [2]	other results
CC(O)CO (centres unmarked) [Propylene Glycol, propylene glycol]	promote degradation; also recorded: tend to react with ranitidine HCl or promote degradation at the tablets' surfaces	2	
CCCCOC(=O)CCCCCCCCC(=O)OCCCC [dibutyl sebecate]	tend to react with ranitidine HCl or promote degradation at the tablets' surfaces		
CCOC(=O)CC(O)(CC(=O)OCC)C(=O)OCC [Triethyl Citrate, triethyl citrate]		3	
CCOC(=O)c1ccccc1C(=O)OCC [diethyl phthalate]	tend to react with ranitidine HCl or promote degradation at the tablets' surfaces		
OCC(O)CO [Glycerol, glycerol]		5	
CNC(=C[N+](=O)[O-])NCCSCc1ccc(CN(C)C)o1 [ranitidine HCl]			solubility in water ([3]; 25° C.): greater than 900 mg/mL; solubility in commonly used organic solvents [3]: very soluble; degradation upon aging [4]: accelerated by heat, moisture and light
CC(=O)OCC(COC(C)=O)OC(C)=O [Triacetin, 1,2,3-propanetriol triacetate]	essentially unreactive with ranitidine HCl	1	
